Measurements: patent US9833497B2, “Human originated EGF domain proteins and use of the same” (CHENGDU SOURCEBIO LIMITED-LIABILITY COMPANY, priority 2013, dated 2017)

Experiments:
Format in all cases: cell-based
Citrobacter diversus = assay: MIC against Gram-negative bacteria: Citrobacter diversus; details: 5×10^5 CFU/mL; for MIC (μg/mL) C. diversus: 10 h cultivation at 37° C.
Outline: (§1)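 Two-fold serial dilutions of each purified human EGF domain protein, three replicate wells per level, were combined with bacteria at a final 5×10^5 CFU/mL in LB. Cultures were shaken at 175 rpm, 37° C. The MIC was taken as the minimum concentration preventing growth.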

E. coli BL21 = assay: MIC against Gram-negative bacteria: E. coli BL21; details: 5×10^5 CFU/mL; for MIC (μg/mL) E. coli BL21: 10 h cultivation at 37° C.
Outline: as §1

Aeromonas hydrophila = assay: MIC against Gram-negative bacteria: Aeromonas hydrophila; details: 5×10^5 CFU/mL; for MIC (μg/mL) A. hydrophila: 10 h cultivation at 37° C.
Outline: as §1

Serratia marcescens = assay: MIC against Gram-negative bacteria: Serratia marcescens; details: 5×10^5 CFU/mL; for MIC (μg/mL) S. marcescens: 10 h cultivation at 37° C.
Outline: as §1

Enterobacter cloacae = assay: MIC against Gram-negative bacteria: Enterobacter cloacae; details: 5×10^5 CFU/mL; for MIC (μg/mL) E. cloacae: 10 h cultivation at 37° C.
Outline: as §1

Klebsiella pneumonia = assay: MIC against Gram-negative bacteria: Klebsiella pneumonia; details: 5×10^5 CFU/mL; for MIC (μg/mL) K. pneumonia: 10 h cultivation at 37° C.
Outline: as §1

Proteus vulgaris = assay: MIC against Gram-negative bacteria: Proteus vulgaris; details: 5×10^5 CFU/mL; for MIC (μg/mL) P. vulgaris: 10 h cultivation at 37° C.
Outline: as §1

Moraxella catarrhalis = assay: MIC against Gram-negative bacteria: Moraxella catarrhalis; details: 5×10^5 CFU/mL; for MIC (μg/mL) M. catarrhalis: 10 h cultivation at 37° C.
Outline: as §1

Pseudomonas aeruginosa = assay: MIC against Gram-negative bacteria: Pseudomonas aeruginosa; details: 5×10^5 CFU/mL; for MIC (μg/mL) P. aeruginosa: 10 h cultivation at 37° C.
Outline: as §1

E. coli DH5α = assay: Antibacterial activity: MIC and growth curve against E. coli DH5α in 96-well plate; details: minimal inhibitory concentration against E. coli DH5α; 96-well plate, 5×10^5 CFU/mL, 37° C., judged after 8 h
Outline: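 Log-phase bacteria (OD600 ~0.5) resuspended in LB at 5×10^5 CFU/mL, exposed to recombinant protein at 50, 25, 12.5 μg/mL final in triplicate, 37 °C shaking at 175 rpm. OD600 read every 30 min; MIC is lowest concentration showing no growth.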

Proteus mirabilis = assay: MIC against Gram-negative bacteria: Proteus mirabilis; details: 5×10^5 CFU/mL; for MIC (μg/mL) P. mirabilis: 10 h cultivation at 37° C.
Outline: as §1

PRT537 (CDCNGNSNECLDGSGYCVHCQRNTTGEHCEKCLDGYIGDSIRGAPQFCQP; listed as Homo sapiens)
25 µg/mL: MIC against E. coli BL21 (E. coli BL21; 96-well plate, 37° C., 10 h) | MIC against A. hydrophila (Aeromonas hydrophila; 96-well plate, 37° C., 10 h) | MIC against K. pneumonia (Klebsiella pneumonia; 96-well plate, 37° C., 10 h) | MIC against P. vulgaris (Proteus vulgaris; 96-well plate, 37° C., 10 h) | MIC against M. catarrhalis (Moraxella catarrhalis; 96-well plate, 37° C., 10 h)
12.5 µg/mL: MIC against C. diversus (Citrobacter diversus; 96-well plate, 37° C., 10 h) | MIC against S. marcescens (Serratia marcescens; 96-well plate, 37° C., 10 h) | MIC against P. aeruginosa (Pseudomonas aeruginosa; 96-well plate, 37° C., 10 h) | MIC against P. mirabilis (Proteus mirabilis; 96-well plate, 37° C., 10 h)
50 µg/mL: MIC against E. cloacae (Enterobacter cloacae; 96-well plate, 37° C., 10 h) | MIC (E. coli DH5α)

PRT729 (GSNACNQPTHPNGDCSHFCFPVPNFQRVCGCPYGMRLASNHLTCE; listed as Homo sapiens)
12.5 µg/mL: MIC C. diversus (Citrobacter diversus; 96-well plate, 37° C., 10 h) | MIC E. cloacae (Enterobacter cloacae; 96-well plate, 37° C., 10 h) | MIC P. aeruginosa (Pseudomonas aeruginosa; 96-well plate, 37° C., 10 h) | MIC (E. coli DH5α) | MIC P. mirabilis (Proteus mirabilis; 96-well plate, 37° C., 10 h)
50 µg/mL: MIC S. marcescens (Serratia marcescens; 96-well plate, 37° C., 10 h)
25 µg/mL: MIC E. coli BL21 (E. coli BL21; 96-well plate, 37° C., 10 h) | MIC A. hydrophila (Aeromonas hydrophila; 96-well plate, 37° C., 10 h) | MIC K. pneumonia (Klebsiella pneumonia; 96-well plate, 37° C., 10 h) | MIC P. vulgaris (Proteus vulgaris; 96-well plate, 37° C., 10 h) | MIC M. catarrhalis (Moraxella catarrhalis; 96-well plate, 37° C., 10 h)

PRT471 (VCEPGCGAHGTCHEPNKCQCQEGWHGRHCN; listed as Homo sapiens)
100 µg/mL: MIC (E. coli DH5α)
12.5 µg/mL: MIC against C. diversus (Citrobacter diversus; 96-well plate, 37° C., 10 h) | MIC against E. coli BL21 (E. coli BL21; 96-well plate, 37° C., 10 h) | MIC against A. hydrophila (Aeromonas hydrophila; 96-well plate, 37° C., 10 h) | MIC against S. marcescens (Serratia marcescens; 96-well plate, 37° C., 10 h) | MIC against E. cloacae (Enterobacter cloacae; 96-well plate, 37° C., 10 h) | MIC against K. pneumonia (Klebsiella pneumonia; 96-well plate, 37° C., 10 h) | MIC against M. catarrhalis (Moraxella catarrhalis; 96-well plate, 37° C., 10 h) | MIC against P. aeruginosa (Pseudomonas aeruginosa; 96-well plate, 37° C., 10 h) | MIC against P. mirabilis (Proteus mirabilis; 96-well plate, 37° C., 10 h)
25 µg/mL: MIC against P. vulgaris (Proteus vulgaris; 96-well plate, 37° C., 10 h)

PRT236 (TKTSCAKCPPNASCVNNTHCTCNHGYTSGSGQKLFTFPLETCN; listed as Homo sapiens)
12.5 µg/mL: MIC (μg/mL) C. diversus (Citrobacter diversus) | MIC (μg/mL) E. coli BL21 (E. coli BL21) | MIC (μg/mL) S. marcescens (Serratia marcescens) | MIC (μg/mL) E. cloacae (Enterobacter cloacae) | MIC (μg/mL) K. pneumonia (Klebsiella pneumonia) | MIC (E. coli DH5α) | MIC (μg/mL) P. mirabilis (Proteus mirabilis)
100 µg/mL: MIC (μg/mL) P. aeruginosa (Pseudomonas aeruginosa)
25 µg/mL: MIC (μg/mL) A. hydrophila (Aeromonas hydrophila) | MIC (μg/mL) P. vulgaris (Proteus vulgaris) | MIC (μg/mL) M. catarrhalis (Moraxella catarrhalis)

PRT179 (RVDRCSLQPCRNGGLCLDLGHALRCRCRAGFAGPRCE; listed as Homo sapiens)
50 µg/mL: MIC (μg/mL) E. cloacae (Enterobacter cloacae) | MIC (E. coli DH5α)
12.5 µg/mL: MIC (μg/mL) A. hydrophila (Aeromonas hydrophila) | MIC (μg/mL) S. marcescens (Serratia marcescens) | MIC (μg/mL) P. vulgaris (Proteus vulgaris) | MIC (μg/mL) M. catarrhalis (Moraxella catarrhalis) | MIC (μg/mL) P. aeruginosa (Pseudomonas aeruginosa)
25 µg/mL: MIC (μg/mL) C. diversus (Citrobacter diversus) | MIC (μg/mL) E. coli BL21 (E. coli BL21) | MIC (μg/mL) K. pneumonia (Klebsiella pneumonia) | MIC (μg/mL) P. mirabilis (Proteus mirabilis)

PRT839 (DVDECRLGLARCHPRATCLNTPLSYECHCQRGYQGDGISHCN; listed as Homo sapiens)
12.5 µg/mL: MIC (μg/mL) A. hydrophila (Aeromonas hydrophila) | MIC (μg/mL) E. cloacae (Enterobacter cloacae) | MIC (μg/mL) K. pneumonia (Klebsiella pneumonia) | MIC (μg/mL) P. vulgaris (Proteus vulgaris) | MIC (μg/mL) P. aeruginosa (Pseudomonas aeruginosa) | MIC (E. coli DH5α)
50 µg/mL: MIC (μg/mL) S. marcescens (Serratia marcescens) | MIC (μg/mL) M. catarrhalis (Moraxella catarrhalis)
25 µg/mL: MIC (μg/mL) C. diversus (Citrobacter diversus) | MIC (μg/mL) E. coli BL21 (E. coli BL21) | MIC (μg/mL) P. mirabilis (Proteus mirabilis)

PRT461 (DVDECAWDAHLCREGQRCVNLLGSYRCLPDCGPGFRVADGAGCE; listed as Homo sapiens)
50 µg/mL: MIC against C. diversus (Citrobacter diversus; 96-well plate, 37° C., 10 h) | MIC against E. cloacae (Enterobacter cloacae; 96-well plate, 37° C., 10 h) | MIC against P. aeruginosa (Pseudomonas aeruginosa; 96-well plate, 37° C., 10 h) | MIC (E. coli DH5α)
12.5 µg/mL: MIC against E. coli BL21 (E. coli BL21; 96-well plate, 37° C., 10 h) | MIC against A. hydrophila (Aeromonas hydrophila; 96-well plate, 37° C., 10 h) | MIC against S. marcescens (Serratia marcescens; 96-well plate, 37° C., 10 h) | MIC against K. pneumonia (Klebsiella pneumonia; 96-well plate, 37° C., 10 h) | MIC against P. mirabilis (Proteus mirabilis; 96-well plate, 37° C., 10 h)
25 µg/mL: MIC against P. vulgaris (Proteus vulgaris; 96-well plate, 37° C., 10 h) | MIC against M. catarrhalis (Moraxella catarrhalis; 96-well plate, 37° C., 10 h)
